The source of these data is patent US11622976B2, “Urine alkali agent useful for treatment of cancer patient” (Delta-Fly Pharma, Inc., priority 2018, dated 2023).

In data set [1] the test system is breast cancer associated with lung metastasis. Put plainly: Urinary alkalinization therapy, breast cancer patient with lung metastasis (person). The class given is in vivo, human. The protocol:
A patient was diagnosed with breast cancer […] and underwent a surgical operation. In January, 2011, transfer of recurrent breast cancer to the lung was found. Administration of Taxotere (80 mg/m^2) was continued at the intervals of 3 weeks. […] Because of this, the dose of Taxotere was reduced to 60 mg/m^2 (intervals of 3 weeks).

The next data set has as its system lung cancer. Put plainly: Urinary alkalinization therapy, lung cancer patient. The class given is in vivo, human. From the text: A patient successively underwent a surgery for breast cancer in March, 2009, a surgery for endometrial cancer in October, 2010 and a surgery for lung cancer (adenocarcinoma, upper right lobe) in December, 2011.
From January, 2012, application of a urinary alkalinization therapy, including orally administering magnesium oxide (laxative, Magmitt (manufactured by Kyowa Chemical Industry Co., Ltd.)) every day in a dose of 2 g per day after a meal three times (the dose being divided into three portions), was initiated.

In a further data set the test system is B16 melanoma cells. Conditions: aqueous solution 200 mmol/L (17 g/L) fed, with cancer immunotherapy by e.g. a cancer immunity-checkpoint inhibitor; vs water without sodium hydrogen carbonate; cited from earlier work.
The test system of another data set is cancer cells. Conditions: pHe shifted from acidic to alkaline range by gradually increasing the concentration in the serum; cited from earlier work.
Data set [2] has as its system gastric cancer (gastroesophageal junction cancer). Conditions: cited from earlier work.

“Also recorded” adds a separate entry of the source.

On to `CC(=O)O[C@@]12CO[C@@H]1C[C@H](O)[C@@]1(C)C(=O)[C@H](O)C3=C(C)[C@@H](OC(=O)[C@H](O)[C@@H](NC(=O)OC(C)(C)C)c4ccccc4)C[C@@](O)([C@@H](OC(=O)c4ccccc4)[C@H]21)C3(C)C` [Taxotere, docetaxel], for which the side effect result in data set [1] (Taxotere alone 80 mg/m^2 every 3 weeks, six months) is reported as “severe side effect”. Further, the disease state result in data set [1] (Taxotere alone reduced to 60 mg/m^2 every 3 weeks) is recorded as “the disease did not become stable”.
On to `[O]=[Mg]` [magnesium oxide], for which the “urine pH value” in the data set on lung cancer (continuous oral administration, 2 g per day) is on record as “kept in the alkaline pH range”. Also, the “recurrence/metastasis, development of another cancer” value in the data set with lung cancer (oral, 2 g per day in three portions, every day from January, 2012, after surgeries) is “recurrence and metastasis of lung cancer have not been observed; also recorded: Neither development of another cancer nor recurrence/metastasis has been found”.
On to `O=C([O-])O.[Na+]` [sodium hydrogen carbonate], for which the antitumor effect result in the data set with B16 melanoma cells is reported as “a significantly high antitumor effect is obtained”. Further, the “proliferation and invasion of cancer cells” value in the data set with cancer cells was “the proliferation and invasion of cancer cells can be suppressed”.
On to “Opdivo: immune checkpoint inhibitor containing anti-human PD-1 monoclonal antibody (nivolumab)”, for which the median overall survival result in data set [2] (gastric cancer patients (gastroesophageal junction cancer), Lancet. 2017 Dec. 2, 390 (10111): 2461-2471) is given as “about 5.26 months”. In data set [2] (patients with end-stage gastric cancer), the “tumor shrinkage and decrease of a tumor marker level” value was “seldom confirmed”.
